Laboratory results reported in the supplement of paper PMC10307832.

Assays:
Assay in all cases: relative viability (nuclei count vs DMSO), 5 days (fraction); higher = more cells survive
NCI-H1792 = tested on: NCI-H1792
In short: (§1)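 Relative viability equals treated-well nuclei counts divided by vehicle-well nuclei counts. Counts came from 4× images of lung cancer cell lines grown in 1536-well plates for 5 days after pin-tool dosing on the day after seeding. Dosing used one drug alone or a fixed anchor-drug dose plus five library-drug doses (not always all listed) in √10 steps, and values are medians of duplicate plates.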

LC-2-ad = tested on: LC-2-ad
In short: as §1

SK-LU-1 = tested on: SK-LU-1
In short: as §1

LXF-289 = tested on: LXF-289
In short: as §1

NCI-H2085 = tested on: NCI-H2085
In short: as §1

HCC-78 = tested on: HCC-78
In short: as §1

LU99A = tested on: LU99A
In short: as §1

NCI-H1755 = tested on: NCI-H1755
In short: as §1

COR-L 105 = tested on: COR-L 105
In short: as §1

NCI-H460 = tested on: NCI-H460
In short: as §1

HCC-366 = tested on: HCC-366
In short: as §1

EPLC-272H = tested on: EPLC-272H
In short: as §1

A-427 = tested on: A-427
In short: as §1

NCI-H1975 = tested on: NCI-H1975
In short: as §1

HOP-62 = tested on: HOP-62
In short: as §1

LCLC-97TM1 = tested on: LCLC-97TM1
In short: as §1

UMC-11 = tested on: UMC-11
In short: as §1

NCI-H1915 = tested on: NCI-H1915
In short: as §1

C[C@@H]1CN(CC(=O)Nc2ccc3c(c2)Cc2cccc(-c4cc(=O)cc(N5CCOCC5)o4)c2S3)C[C@H](C)O1 + CC(C)C[C@H](NC(=O)[C@H](Cc1ccccc1)NC(=O)c1cnccn1)B(O)O [Bortezomib] (partner 0.002 µM)
relative viability (NCI-H1792; first compound 0.04 µM): 0.939 | relative viability (NCI-H1792; first compound 0.1265 µM): 0.913 | relative viability (NCI-H1792; first compound 0.4 µM): 0.924 | relative viability (NCI-H1792; first compound 4 µM): 0.859 | relative viability (LC-2-ad; first compound 0.04 µM): 1.09 | relative viability (LC-2-ad; first compound 0.1265 µM): 0.981 | relative viability (LC-2-ad; first compound 0.4 µM): 0.936 | relative viability (LC-2-ad; first compound 4 µM): 0.847 | relative viability (SK-LU-1; first compound 0.04 µM): 1.17 | relative viability (SK-LU-1; first compound 0.1265 µM): 1.43 | relative viability (SK-LU-1; first compound 0.4 µM): 1.09 | relative viability (SK-LU-1; first compound 4 µM): 1.13 | relative viability (LXF-289; first compound 0.04 µM): 0.996 | relative viability (LXF-289; first compound 0.1265 µM): 0.977 | relative viability (LXF-289; first compound 0.4 µM): 1.02 | relative viability (LXF-289; first compound 4 µM): 0.999 | relative viability (NCI-H2085; first compound 0.04 µM): 0.999 | relative viability (NCI-H2085; first compound 0.1265 µM): 1.04 | relative viability (NCI-H2085; first compound 0.4 µM): 0.975 | relative viability (NCI-H2085; first compound 4 µM): 0.805 | relative viability (HCC-78; first compound 0.04 µM): 0.404 | relative viability (HCC-78; first compound 0.1265 µM): 0.484 | relative viability (HCC-78; first compound 0.4 µM): 0.431 | relative viability (HCC-78; first compound 4 µM): 0.432 | relative viability (LU99A; first compound 0.04 µM): 1.11 | relative viability (LU99A; first compound 0.1265 µM): 1.15 | relative viability (LU99A; first compound 0.4 µM): 1.11 | relative viability (LU99A; first compound 4 µM): 1.1 | relative viability (NCI-H1755; first compound 0.04 µM): 1.05 | relative viability (NCI-H1755; first compound 0.1265 µM): 1.01 | relative viability (NCI-H1755; first compound 0.4 µM): 0.948 | relative viability (NCI-H1755; first compound 4 µM): 0.942 | relative viability (COR-L 105; first compound 0.04 µM): 0.741 | relative viability (COR-L 105; first compound 0.1265 µM): 0.896 | relative viability (COR-L 105; first compound 0.4 µM): 1.1 | relative viability (COR-L 105; first compound 4 µM): 0.484 | relative viability (NCI-H460; first compound 0.04 µM): 1.13 | relative viability (NCI-H460; first compound 0.1265 µM): 1.05 | relative viability (NCI-H460; first compound 0.4 µM): 1.24 | relative viability (NCI-H460; first compound 4 µM): 0.759 | relative viability (HCC-366; first compound 0.04 µM): 0.999 | relative viability (HCC-366; first compound 0.1265 µM): 1.04 | relative viability (HCC-366; first compound 0.4 µM): 1.24 | relative viability (HCC-366; first compound 4 µM): 0.978 | relative viability (EPLC-272H; first compound 0.04 µM): 0.925 | relative viability (EPLC-272H; first compound 0.1265 µM): 0.894 | relative viability (EPLC-272H; first compound 0.4 µM): 1.03 | relative viability (EPLC-272H; first compound 4 µM): 0.993 | relative viability (A-427; first compound 0.04 µM): 1.02 | relative viability (A-427; first compound 0.1265 µM): 0.993 | relative viability (A-427; first compound 0.4 µM): 0.952 | relative viability (A-427; first compound 4 µM): 1.03 | relative viability (NCI-H1975; first compound 0.04 µM): 0.394 | relative viability (NCI-H1975; first compound 0.1265 µM): 0.415 | relative viability (NCI-H1975; first compound 0.4 µM): 0.39 | relative viability (NCI-H1975; first compound 4 µM): 0.27 | relative viability (HOP-62; first compound 0.04 µM): 0.677 | relative viability (HOP-62; first compound 0.1265 µM): 0.548 | relative viability (HOP-62; first compound 0.4 µM): 0.755 | relative viability (HOP-62; first compound 4 µM): 1.02 | relative viability (LCLC-97TM1; first compound 0.1265 µM): 0.615 | relative viability (LCLC-97TM1; first compound 0.4 µM): 0.33 | relative viability (LCLC-97TM1; first compound 4 µM): 0.391 | relative viability (UMC-11; first compound 0.04 µM): 0.778 | relative viability (UMC-11; first compound 0.1265 µM): 0.693 | relative viability (UMC-11; first compound 0.4 µM): 0.919 | relative viability (UMC-11; first compound 4 µM): 0.543 | relative viability (NCI-H1915; first compound 0.04 µM): 0.905 | relative viability (NCI-H1915; first compound 0.1265 µM): 0.964 | relative viability (NCI-H1915; first compound 0.4 µM): 1.03 | relative viability (NCI-H1915; first compound 4 µM): 0.73
